Assay results as given in patent US20100166660A1, “METHODS OF MODELING MIGRAINE PAIN AND IDENTIFYING CANDIDATE COMPOUNDS FOR THE TREATMENT OF MIGRAINE” (priority 2007, published 2010).
Blank lines part the entries; values can stand above or below the molecule they belong to.

Experiments:
Assay type in all cases: in vivo, rat
Male Sprague Dawley rats [1] = test: Candidate compound effect on tactile hyperesthesia of the hindpaw induced by dural inflammation (IM cocktail)
Method: Paw withdrawal thresholds to tactile stimuli were determined in response to probing with calibrated von Frey filaments (Stoelting Co., #58011). The von Frey filaments were applied perpendicularly to the plantar surface of the hindpaw of the animal until it buckled slightly, and were held for three to six seconds. A positive response was indicated by a sharp withdrawal of the paw. The 50% paw withdrawal threshold was determined by the non-parametric method of Dixon (Dixon, Ann. Rev. Pharmacol. Toxicol. 20:441-462, 1980; also see, e.g., Chaplan et al., J. Neurosci. Meth. 53:55-63, 1994). […] This “up-down” method was repeated until three changes in behavior were determined. The pattern of positive and negative responses was tabulated.
The 50% paw withdrawal threshold was determined as (10^[Xf+kδ])/10,000, where Xf is the value of the last von Frey filament employed, k is the Dixon value for the positive/negative pattern, and δ is the mean (log) difference between stimuli. Only naïve animals with baselines of 11 to 15 grams were used in the experiment. Fifteen grams was used as the maximal cut-off. Five days post-migraine surgery, paw withdrawal thresholds were re-tested using the same habituation and von Frey procedure as stated above. Data were converted to percent “antiallodynia” by the following formula: percent antiallodynia=100×(test value−post-treatment baseline value)/(pretreatment baseline value−post-treatment baseline value).
After establishing baseline paw withdrawal thresholds, individual animals were removed from the testing chamber, the cap of the migraine intracranial guide tube was removed, and animals received an injection of either an IM cocktail (1 mM histamine, 1 mM serotonin, 1 mM bradykinin, and 1 mM prostaglandin E2) or vehicle (i.e., control) at 10 μl volume via the intracranial guide tube over a five- to ten-second period. The IM cocktail was made fresh on the day of each experiment. The cap of the intracranial guide tube was replaced, individual animals were placed back into their corresponding testing chamber, and paw withdrawal thresholds were measured at one-hour intervals over a six-hour time course. […] Data were converted to percent “antiallodynia” by the following formula: percent antiallodynia=100×(test value−post-treatment baseline value)/(pretreatment baseline value−post-treatment baseline value).
Rats were anesthetized with ketamine/xylazine (80-100 mg/kg, intraperitoneal) for stereotaxic placement of bilateral cannulae in the RVM. […]

Male Sprague Dawley rats [2] = test: Candidate compound effect on facial tactile hyperesthesia induced by dural inflammation (IM cocktail)
Method: In another set of experiments, facial response thresholds of the rats to tactile stimuli were determined. Calibrated von Frey filaments were applied perpendicularly to the midline of the forehead within a 3 mm diameter area just above the plane of the eyes, for six to eight seconds, until the filaments buckled slightly. A positive response was indicated by a sharp withdrawal of the head, which sometimes included an attempt to grasp and/or bite the filament. Special care was taken when applying the filaments to the forehead in order to prevent a positive facial response due to dynamic force and/or deflection of the hairs. The 50% facial response threshold was determined by the non-parametric method of Dixon. […] This “up-down” method was repeated until three changes in behavior were determined. The pattern of positive and negative responses was tabulated.
The 50% facial response threshold was determined as (10^[Xf+kδ])/10,000, where Xf is the value of the last von Frey filament employed, k is the Dixon value for the positive/negative pattern, and δ is the mean (log) difference between stimuli. Only naïve animals with baselines of eight grams were used in the experiment. Eight grams was used as the maximal cut-off. […]

Male Sprague Dawley rats [3] = test: Dural stimulus-induced tactile hyperesthesia of the hindpaw (50% paw withdrawal threshold, von Frey filaments); settings: administered to the dura; results two hours after treatment; FIG. 4
Method: Male Sprague Dawley rats were anesthetized using ketamine/xylazine (80-100 mg/kg, intraperitoneal). The top of the head was shaved using a rodent clipper (Oster Golden A5 w/size 50 blade), and the shaved area was cleaned with betadine and 70% ethanol. Animals were placed into a stereotaxic apparatus (Stoelting Co., #51600) and the body core temperatures of 37° C. were maintained using a heating pad placed below the animals. Within the shaved and cleaned area on the head, a 2 cm incision was made using a scalpel with a #10 blade, and any bleeding was cleaned using sterile cotton swabs. […]
Paw withdrawal thresholds to tactile stimuli were determined in response to probing with calibrated von Frey filaments (Stoelting Co., #58011). […] The 50% paw withdrawal threshold was determined by the non-parametric method of Dixon (Dixon, Ann. Rev. Pharmacol. Toxicol. 20:441-462, 1980; also see, e.g., Chaplan et al., J. Neurosci. Meth. 53:55-63, 1994). […] This “up-down” method was repeated until three changes in behavior were determined. […]
The 50% paw withdrawal threshold was determined as (10^[Xf+kδ])/10,000, where Xf is the value of the last von Frey filament employed, k is the Dixon value for the positive/negative pattern, and δ is the mean (log) difference between stimuli. […]

rats [4] = test: Oral administration of compounds in the migraine model of the invention (tactile allodynia)
From the text: Oral delivery was accomplished by using an 18-gauge gavage needle attached to a 1 cc syringe.

rats [5] = test: Model for allodynia: continuous drug infusion, then paw withdrawal threshold with von Frey filaments; settings: continuous infusion (sumatriptan: 24 hour infusion at 0.6 mg/k/day); Appendix A-5
Method: We have developed a model to determine the propensity for a compound to induce allodynia upon administration. Briefly, rats are infused continuously with a drug for a specified period of time. After the time, rats are probe with von Frey filaments to determine the paw withdrawal threshold. The compound may be administered for more than 2, 3, 4, 5, 6, 7, 8, 9, 10, 11, 12, 13, 14, 15, 16, 17, 18, 19, 20, 21, 22, 23, or 24 hours.

SMILES: CCCCN1CCCCC1C(=O)Nc1c(C)cccc1C (centres unmarked) [bupivacaine]
- paw withdrawal threshold versus rats with dural IM cocktail but no compound (Male Sprague Dawley rats [1]; administration in the RVM thirty minutes after IM cocktail, FIG. 9A): increase in paw withdrawal threshold
- paw withdrawal threshold versus rats with dural IM cocktail but no compound (Male Sprague Dawley rats [1]; administration in the RVM two hours after IM cocktail, FIG. 9B): significant increase in test animal paw withdrawal threshold
- facial response threshold versus rats with dural IM cocktail but no compound (Male Sprague Dawley rats [2]; administration in the RVM thirty minutes after IM cocktail, FIGS. 7A-7B): increase in facial response threshold

SMILES: N[C@@H](CCC(=O)N[C@@H](CSN=O)C(=O)NCC(=O)O)C(=O)O [SNOG, s-nitrosylglutathione]
- tactile hyperesthesia of the hindpaw (Male Sprague Dawley rats [3]): produced a tactile hyperesthesia effect similar to that induced by administration of the IM cocktail

SMILES: CN1CC=C(c2c[nH]c3ccc(NC(=N)c4cccs4)cc23)CC1 [cpd 1]
- attenuation of tactile allodynia in the migraine model (rats [4]; after oral administration, Appendix A-4): attenuated tactile allodynia
- oral activity in the migraine model (rats [4]; oral, Appendix A-3): orally active
- induction of tactile allodynia after continuous infusion (rats [5]): do not induce tactile allodynia

- induction of tactile allodynia after continuous infusion (rats [5]): induces tactile allodynia
SMILES: CNS(=O)(=O)Cc1ccc2[nH]cc(CCN(C)C)c2c1 [sumatriptan]
- paw withdrawal threshold versus rats with dural IM cocktail but no compound (Male Sprague Dawley rats [1]; 0.6 mg/kg s.c. ten minutes prior to IM cocktail, FIG. 8): increase in paw withdrawal threshold
- development of tactile hyperesthesia (paw withdrawal thresholds) (Male Sprague Dawley rats [1]; sumatriptan succinate 1 mg/kg s.c. five minutes prior to dural IM cocktail, two hours after dural treatment, FIG. 10): prevent or ameliorate the development of tactile hyperesthesia
- facial response threshold versus rats with dural IM cocktail but no compound (Male Sprague Dawley rats [2]; systemic administration thirty minutes after IM cocktail, FIGS. 6A-6B): increase in facial response threshold
